These results are taken from patent US7371867B2, “Non-racemic trifluoroleucine, and methods of making and using” (Trustees of Tufts College, priority 2001, dated 2008).

With `CC(C)(C)OC(=O)N[C@@H](CC(C(F)(F)F)C(F)(F)F)C(=O)O` [Peptide 5, N-Boc-5,5,5,5′,5′,5′-(S)-Hexafluoroleucine], the melting point is 85 to 91 °C.

One may read the melting point as the temperature of the solid-liquid transition.
